Laboratory results from PubChem BioAssay (NCI).
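These data come from cells grown in 96-well plates and exposed to compound for 48 hours at five concentrations. GI50 marks 50% less growth. The concentration for full growth arrest is given as TGI.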

Key:
Assay in all cases: DTP human tumour cell line panel, 48 h
[1] = tested on: ACHN renal
[2] = tested on: DU-145 prostate
[3] = tested on: MCF7 breast
[4] = tested on: HCT-116 colon
[5] = tested on: SR leukemia
[6] = tested on: HOP-92 NSCLC
[7] = tested on: SNB-19 CNS
[8] = tested on: SF-268 CNS
[9] = tested on: MDA-MB-231 breast
[10] = tested on: OVCAR-3 ovarian
[11] = tested on: HCC-2998 colon
[12] = tested on: OVCAR-5 ovarian
[13] = tested on: UACC-62 melanoma
[14] = tested on: MALME-3M melanoma
[15] = tested on: HOP-62 NSCLC
[16] = tested on: BT-549 breast
[17] = tested on: M14 melanoma
[18] = tested on: IGROV1 ovarian
[19] = tested on: HT29 colon
[20] = tested on: COLO 205 colon
[21] = tested on: RPMI-8226 leukemia
[22] = tested on: U251 CNS
[23] = tested on: NCI-H226 lung
[24] = tested on: SW-620 colon
[25] = tested on: EKVX NSCLC
[26] = tested on: 786-0 renal
[27] = tested on: K-562 leukemia
[28] = tested on: A549 NSCLC
[29] = tested on: OVCAR-8 ovarian
[30] = tested on: UO-31 renal
[31] = tested on: SK-MEL-28 melanoma
[32] = tested on: T-47D breast
[33] = tested on: A498 renal
[34] = tested on: NCI-H460 lung
[35] = tested on: HCT-15 colon
[36] = tested on: PC-3 prostate
[37] = tested on: SNB-75 CNS
[38] = tested on: SF-539 CNS
[39] = tested on: SF-295 CNS
[40] = tested on: SK-OV-3 ovarian
[41] = tested on: NCI/ADR-RES ovarian
[42] = tested on: MDA-MB-435
[43] = tested on: RXF 393 renal
[44] = tested on: UACC-257 melanoma
[45] = tested on: SN12C renal
[46] = tested on: KM12 colon
[47] = tested on: NCI-H23 lung
[48] = tested on: LOX IMVI melanoma
[49] = tested on: HL-60(TB) leukemia
[50] = tested on: MOLT-4 leukemia
[51] = tested on: CAKI-1 renal
[52] = tested on: SK-MEL-2 melanoma
[53] = tested on: HS 578T breast
[54] = tested on: TK-10 renal
[55] = tested on: NCI-H522 lung
[56] = tested on: CCRF-CEM leukemia
[57] = tested on: SK-MEL-5 melanoma

## C#CCOc1cccc(Nc2ncc3ncn(C4CCN(C(=O)CCl)C4)c3n2)c1 (centres undefined)
[1]
  GI50: 14.6 µM
  TGI: 46.2 µM
[2]
  GI50: > 62.5 µM
  TGI: > 62.5 µM
[3]
  GI50: 59.2 µM
  TGI: > 62.5 µM
[4]
  GI50: 21.5 µM
  TGI: > 62.5 µM
[5]
  GI50: 7.72 µM
  TGI: > 62.5 µM
[6]
  GI50: > 62.5 µM
  TGI: > 62.5 µM
[7]
  GI50: > 62.5 µM
  TGI: > 62.5 µM
[8]
  GI50: > 62.5 µM
  TGI: > 62.5 µM
[9]
  GI50: > 62.5 µM
  TGI: > 62.5 µM
[10]
  GI50: 37.8 µM
  TGI: > 62.5 µM
[11]
  GI50: > 62.5 µM
  TGI: > 62.5 µM
[12]
  GI50: > 62.5 µM
  TGI: > 62.5 µM
[13]
  GI50: > 62.5 µM
  TGI: > 62.5 µM
[14]
  GI50: 8.78 µM
  TGI: 56.2 µM
[15]
  GI50: > 62.5 µM
  TGI: > 62.5 µM
[16]
  GI50: 18.3 µM
  TGI: > 62.5 µM
[17]
  GI50: > 62.5 µM
  TGI: > 62.5 µM
[18]
  GI50: 6.79 µM
  TGI: > 62.5 µM
[19]
  GI50: > 62.5 µM
  TGI: > 62.5 µM
[20]
  GI50: > 62.5 µM
  TGI: > 62.5 µM
[21]
  GI50: > 62.5 µM
  TGI: > 62.5 µM
[22]
  GI50: > 62.5 µM
  TGI: > 62.5 µM
[23]
  GI50: > 62.5 µM
  TGI: > 62.5 µM
[24]
  GI50: 15.4 µM
  TGI: > 62.5 µM
[25]
  GI50: > 62.5 µM
  TGI: > 62.5 µM
[26]
  GI50: > 62.5 µM
  TGI: > 62.5 µM
[27]
  GI50: 17.9 µM
  TGI: > 62.5 µM
[28]
  GI50: > 62.5 µM
  TGI: > 62.5 µM
[29]
  GI50: > 62.5 µM
  TGI: > 62.5 µM
[30]
  GI50: 37.4 µM
  TGI: > 62.5 µM
[31]
  GI50: > 62.5 µM
  TGI: > 62.5 µM
[32]
  GI50: > 62.5 µM
  TGI: > 62.5 µM
[33]
  GI50: > 62.5 µM
  TGI: > 62.5 µM
[34]
  GI50: > 62.5 µM
  TGI: > 62.5 µM
[35]
  GI50: > 62.5 µM
  TGI: > 62.5 µM
[36]
  GI50: > 62.5 µM
  TGI: > 62.5 µM
[37]
  GI50: > 62.5 µM
  TGI: > 62.5 µM
[38]
  GI50: > 62.5 µM
  TGI: > 62.5 µM
[39]
  GI50: > 62.5 µM
  TGI: > 62.5 µM
[40]
  GI50: > 62.5 µM
  TGI: > 62.5 µM
[41]
  GI50: > 62.5 µM
  TGI: > 62.5 µM
[42]
  GI50: > 62.5 µM
  TGI: > 62.5 µM
[43]
  GI50: > 62.5 µM
  TGI: > 62.5 µM
[44]
  GI50: > 62.5 µM
  TGI: > 62.5 µM
[45]
  GI50: 29.1 µM
  TGI: > 62.5 µM
[46]
  GI50: > 62.5 µM
  TGI: > 62.5 µM
[47]
  GI50: > 62.5 µM
  TGI: > 62.5 µM
[48]
  GI50: 13.2 µM
  TGI: > 62.5 µM
[49]
  GI50: 22.7 µM
  TGI: > 62.5 µM
[50]
  GI50: 11.3 µM
  TGI: > 62.5 µM
[51]
  GI50: > 62.5 µM
  TGI: > 62.5 µM
[52]
  GI50: > 62.5 µM
  TGI: > 62.5 µM
[53]
  GI50: > 62.5 µM
  TGI: > 62.5 µM
[54]
  GI50: > 62.5 µM
  TGI: > 62.5 µM
[55]
  GI50: 7.08 µM
  TGI: 18.1 µM
[56]
  GI50: 2.46 µM
  TGI: > 62.5 µM
[57]
  GI50: > 62.5 µM
  TGI: > 62.5 µM
